Measured values from US20230107642A1 (Erasca, Inc., priority 2020, published 2023).

Target: T1, Cys12 of the KRAS 4B G12C protein (Homo sapiens, UniProt P01116, G12C)
T1 construct: This protein contained 188 amino acids in total, including an N-terminal 6-Histidine tag; made in house; host or cells: E. coli BL21
Assay: In vitro covalent adduct formation (CAF) assay, LC-MS intact mass
Type: binding
Conditions: for CAF (% after 1 hour): 10 μM compound; for % CAF 10 uM @ 60 min: 10 uM compound
Outline: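 GDP-loaded (>95%) His-TEV-tagged KRAS 4B G12C (residues 1–169), 5 μM in TBS pH 7.4, incubated with 10 μM compound (4% DMSO) at 22° C for one hour. Intact-protein LC-MS gave free:adduct ratios, reported as percent protein modified; duplicate runs.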

| CAF (% after 1 hour) | % CAF 10 uM @ 60 min | Structure (SMILES) |
| --- | --- | --- |
| 94% | – | C=CC(=O)N1[C@H](C)CN(c2nc(=O)n3c4c(c(-c5cc(Cl)c(F)cc5F)c(C(F)(F)F)cc24)SC[C@@H](Oc2cc(C)on2)C3)C[C@@H]1C [Example 1230, (3S,11R)-8-((3S,5R)-4-acryloyl-3,5-dimethylpiperazin-1-yl)-11-(5-chloro-2,4-difluorophenyl)-3-((5-methylisoxazol-3-yl)oxy)-10-(trifluoromethyl)-3,4-dihydro-2H,6H-[1,4]thiazepino[2,3,4-ij]quinazolin-6-one] |
| 38% | – | C=CC(=O)N1[C@H](C)CN(c2nc(=O)n3c4c(c(-c5cc(Cl)c(F)cc5F)c(C(F)(F)F)cc24)SC[C@@H](Oc2cc(C)on2)C3)C[C@@H]1C [Example 1231, (3S,11S)-8-((3S,5R)-4-acryloyl-3,5-dimethylpiperazin-1-yl)-11-(5-chloro-2,4-difluorophenyl)-3-((5-methylisoxazol-3-yl)oxy)-10-(trifluoromethyl)-3,4-dihydro-2H,6H-[1,4]thiazepino[2,3,4-ij]quinazolin-6-one] |
| 94% | – | C=CC(=O)N1[C@H](C)CN(c2nc(=O)n3c4c(c(-c5cc(Cl)c(F)cc5F)c(C(F)(F)F)cc24)SC[C@@H](Oc2ccncc2)C3)C[C@@H]1C [Example 1234, (3S)-8-((3S,5R)-4-acryloyl-3,5-dimethylpiperazin-1-yl)-11-(5-chloro-2,4-difluorophenyl)-3-(pyridin-4-yloxy)-10-(trifluoromethyl)-3,4-dihydro-2H,6H-[1,4]thiazepino[2,3,4-ij]quinazolin-6-one] |
| 69% | – | C=CC(=O)N1[C@H](C)CN(c2nc(=O)n3c4c(c(-c5ccc(F)cc5C(N)=O)c(C(F)(F)F)cc24)SC[C@@H](OC)C3)C[C@@H]1C [Example 1235, 2-((3S)-8-((3S,5R)-4-acryloyl-3,5-dimethylpiperazin-1-yl)-3-methoxy-6-oxo-10-(trifluoromethyl)-3,4-dihydro-2H,6H-[1,4]thiazepino[2,3,4-ij]quinazolin-11-yl)-5-fluorobenzamide] |
| 94% | – | C=CC(=O)N1[C@H](C)CN(c2nc(=O)n3c4c(c(-c5cc(Cl)c(F)cc5F)c(C(F)(F)F)cc24)SC[C@@H](OCCN(CC)CC)C3)C[C@@H]1C [Example 1236, (3S)-8-((3S,5R)-4-acryloyl-3,5-dimethylpiperazin-1-yl)-11-(5-chloro-2,4-difluorophenyl)-3-(2-(diethylamino)ethoxy)-10-(trifluoromethyl)-3,4-dihydro-2H,6H-[1,4]thiazepino[2,3,4-ij]quinazolin-6-one] |
| 90% | – | C=CC(=O)N1[C@H](C)CN(c2nc(=O)n3c4c(c(-c5cc(Cl)c(F)cc5F)c(C(F)(F)F)cc24)SCC2(CC2)C3)C[C@@H]1C [Example 1237, 8′-((3S,5R)-4-acryloyl-3,5-dimethylpiperazin-1-yl)-11′-(5-chloro-2,4-difluorophenyl)-10′-(trifluoromethyl)-2′H,4′H,6′H-spiro[cyclopropane-1,3′-[1,4]thiazepino[2,3,4-ij]quinazolin]-6′-one] |
| 95% | – | C=CC(=O)N1[C@H](C)CN(c2nc(=O)n3c4c(c(-c5cc(Cl)c(F)cc5F)c(C(F)(F)F)cc24)SCC2(CCC2)C3)C[C@@H]1C [Example 1238, 8′-((3S,5R)-4-acryloyl-3,5-dimethylpiperazin-1-yl)-11′-(5-chloro-2,4-difluorophenyl)-10′-(trifluoromethyl)-2′H,4′H,6′H-spiro[cyclobutane-1,3′-[1,4]thiazepino[2,3,4-ij]quinazolin]-6′-one] |
| 95% | – | C=CC(=O)N1[C@H](C)CN(c2nc(=O)n3c4c(c(-c5cc(Br)c(F)cc5F)c(C(F)(F)F)cc24)SC[C@@H](OC)C3)C[C@@H]1C [Example 1239, (3S)-8-((3S,5R)-4-acryloyl-3,5-dimethylpiperazin-1-yl)-11-(5-bromo-2,4-difluorophenyl)-3-methoxy-10-(trifluoromethyl)-3,4-dihydro-2H,6H-[1,4]thiazepino[2,3,4-ij]quinazolin-6-one] |
| 91% | – | C=CC(=O)N1[C@H](C)CN(c2nc(=O)n3c4c(c(-c5cc(Cl)c(F)cc5F)c(C(F)(F)F)cc24)SC[C@@H](NCC(F)(F)F)C3)C[C@@H]1C [Example 1240, (3S)-8-((3S,5R)-4-acryloyl-3,5-dimethylpiperazin-1-yl)-11-(5-chloro-2,4-difluorophenyl)-3-((2,2,2-trifluoroethyl)amino)-10-(trifluoromethyl)-3,4-dihydro-2H,6H-[1,4]thiazepino[2,3,4-ij]quinazolin-6-one] |
| 70% | – | C=CC(=O)N1[C@H](C)CN(c2nc(=O)n3c4c(c(-c5nc(N)c(F)cc5F)c(C(F)(F)F)cc24)SC[C@@H](OC)C3)C[C@@H]1C [Example 1242, (3S)-8-((3S,5R)-4-acryloyl-3,5-dimethylpiperazin-1-yl)-11-(6-amino-3,5-difluoropyridin-2-yl)-3-methoxy-10-(trifluoromethyl)-3,4-dihydro-2H,6H-[1,4]thiazepino[2,3,4-ij]quinazolin-6-one] |
| 92% | – | C=CC(=O)N1[C@H](C)CN(c2nc(=O)n3c4c(c(-c5cc(Cl)c(F)cc5F)c(C(F)(F)F)cc24)SCC2(CC(=O)C2)C3)C[C@@H]1C [Example 1243, 8′-((3S,5R)-4-acryloyl-3,5-dimethylpiperazin-1-yl)-11′-(5-chloro-2,4-difluorophenyl)-10′-(trifluoromethyl)-2′H,4′H,6′H-spiro[cyclobutane-1,3′-[1,4]thiazepino[2,3,4-ij]quinazoline]-3,6′-dione] |

Further lines, the compound ahead of its results:

| Structure (SMILES) | CAF (% after 1 hour) | % CAF 10 uM @ 60 min |
| --- | --- | --- |
| [2H]C([2H])([2H])O[C@@H]1CSc2c(-c3ccc(F)cc3)c(C(F)(F)F)cc3c(N4C[C@@H](C)N(C(=O)C=C)[C@@H](C)C4)nc(=O)n(c23)C1 [Example 1229, (S)-8-((3S,5R)-4-acryloyl-3,5-dimethylpiperazin-1-yl)-11-(4-fluorophenyl)-3-(methoxy-d3)-10-(trifluoromethyl)-3,4-dihydro-2H,6H-[1,4]thiazepino[2,3,4-ij]quinazolin-6-one] | 96% | – |
| C=CC(=O)N1[C@H](C)CN(c2nc(=O)n3c4c(c(-c5ccc(F)cc5)c(C(F)(F)F)cc24)SC[C@@H](OCC(=O)N(C)C)C3)C[C@@H]1C [Example 1232, 2-(((S)-8-((3S,5R)-4-acryloyl-3,5-dimethylpiperazin-1-yl)-11-(4-fluorophenyl)-6-oxo-10-(trifluoromethyl)-3,4-dihydro-2H,6H-[1,4]thiazepino[2,3,4-ij]quinazolin-3-yl)oxy)-N,N-dimethylacetamide] | 93% | – |
| C=CC(=O)N1[C@H](C)CN(c2nc(=O)n3c4c(c(-c5ccc(F)cc5)c(C(F)(F)F)cc24)SC[C@@H](OCC(N)=O)C3)C[C@@H]1C [Example 1233, 2-(((S)-8-((3S,5R)-4-acryloyl-3,5-dimethylpiperazin-1-yl)-11-(4-fluorophenyl)-6-oxo-10-(trifluoromethyl)-3,4-dihydro-2H,6H-[1,4]thiazepino[2,3,4-ij]quinazolin-3-yl)oxy)acetamide] | 95% | – |
| C=CC(=O)N1[C@H](C)CN(c2nc(=O)n3c4c(c(-c5cc(Cl)c(F)cc5F)c(C(F)(F)F)cc24)SCC2(CN(CC(F)(F)F)C2)C3)C[C@@H]1C [Example 1241, 8′-((3S,5R)-4-acryloyl-3,5-dimethylpiperazin-1-yl)-11′-(5-chloro-2,4-difluorophenyl)-1-(2,2,2-trifluoroethyl)-10′-(trifluoromethyl)-2′H,4′H,6′H-spiro[azetidine-3,3′-[1,4]thiazepino[2,3,4-ij]quinazolin]-6′-one] | 91% | – |
| C=CC(=O)N1[C@H](C)CN(c2nc(=O)n3c4c(c(-c5cc(Cl)c(F)cc5F)c(C(F)(F)F)cc24)SC[C@@H]3CN2C[C@@H]3C[C@H]2CO3)C[C@@H]1C [Example 1302, (3S)-3-(((1S,4S)-2-oxa-5-azabicyclo[2.2.1]heptan-5-yl)methyl)-7-((3S,5R)-4-acryloyl-3,5-dimethylpiperazin-1-yl)-10-(5-chloro-2,4-difluorophenyl)-9-(trifluoromethyl)-2,3-dihydro-5H-[1,4]thiazino[2,3,4-ij]quinazolin-5-one] | – | 78.9% |
| C=CC(=O)N1C[C@H](C)N(c2nc(=O)n3c4c(c(-c5cc(Cl)c(F)cc5F)c(C(F)(F)F)cc24)SC[C@@H]3CN2C[C@@H]3C[C@H]2CO3)C[C@H]1C [Example 1304] | – | 87% |
| C=CC(=O)N1C[C@H](C)N(c2nc(=O)n3c4c(c(-c5cc(Cl)c(F)cc5F)c(C(F)(F)F)cc24)SC[C@@H]3CN2CCN(C3CC3)CC2)C[C@H]1C [Example 1307, (3S)-7-((2S,5R)-4-acryloyl-2,5-dimethylpiperazin-1-yl)-10-(5-chloro-2,4-difluorophenyl)-3-((4-cyclopropylpiperazin-1-yl)methyl)-9-(trifluoromethyl)-2,3-dihydro-5H-[1,4]thiazino[2,3,4-ij]quinazolin-5-one] | – | 69.7% |
| [2H]C1([2H])N(C(=O)C=C)C([2H])([2H])C([2H])([2H])N(c2nc(=O)n3c4c(c(-c5cc(Cl)c(F)cc5F)c(C(F)(F)F)cc24)SCC2(COC2)C3)C1([2H])[2H] [Example 1309, 8′-(4-acryloylpiperazin-1-yl-2,2,3,3,5,5,6,6-d8)-11′-(5-chloro-2,4-difluorophenyl)-10′-(trifluoromethyl)-2′H,4′H,6′H-spiro[oxetane-3,3′-[1,4]thiazepino[2,3,4-ij]quinazolin]-6′-one] | – | 97% |
